Experimental data: the NIST ThermoML archive (doi:10.1016/j.jct.2013.08.031)
± gives the expanded uncertainty stated by the source.

Test: mn = molality of the nth substance listed, in mol/kg
Settings: 74.66 kPa, Liquid, Vibrating tube method

CCCC[N+](CCCC)(CCCC)CCCC.[Br-] [tetrabutylammonium bromide] + O
mass density [kg/m3]
Settings	m1 = 0.01143	m1 = 0.02179	m1 = 0.02564	m1 = 0.03767	m1 = 0.0459	m1 = 0.05855	m1 = 0.0711	m1 = 0.07968	m1 = 0.09066	m1 = 0.1003
298.15 K	997.306 ± 0.11	997.542 ± 0.11	997.632 ± 0.11	997.89 ± 0.11	998.083 ± 0.11	998.37 ± 0.11	998.631 ± 0.11	998.818 ± 0.11	999.091 ± 0.11	999.267 ± 0.11
303.15 K	995.897 ± 0.11	996.124 ± 0.11	996.207 ± 0.11	996.459 ± 0.11	996.642 ± 0.11	996.918 ± 0.11	997.168 ± 0.11	997.351 ± 0.11	997.608 ± 0.11	997.806 ± 0.11
308.15 K	994.271 ± 0.11	994.493 ± 0.11	994.567 ± 0.11	994.819 ± 0.11	994.986 ± 0.11	995.247 ± 0.11	995.487 ± 0.11	995.662 ± 0.11	995.912 ± 0.11	996.121 ± 0.11

CCC(C)[N+](C(C)CC)(C(C)CC)C(C)CC.[Br-] (stereo not given) [tetra-sec-butyl ammonium bromide] + O
mass density [kg/m3]
Settings	m1 = 0.0097	m1 = 0.01981	m1 = 0.03014	m1 = 0.04066	m1 = 0.04983	m1 = 0.0598	m1 = 0.07027	m1 = 0.07997	m1 = 0.08984	m1 = 0.1018
298.15 K	997.488 ± 0.11	997.958 ± 0.11	998.439 ± 0.11	998.953 ± 0.11	999.408 ± 0.11	999.909 ± 0.11	1000.44 ± 0.11	1000.95 ± 0.11	1001.45 ± 0.11	1002.08 ± 0.11
303.15 K	996.085 ± 0.11	996.548 ± 0.11	997.029 ± 0.11	997.518 ± 0.11	997.974 ± 0.11	998.449 ± 0.11	998.977 ± 0.11	999.449 ± 0.11	999.971 ± 0.11	1000.56 ± 0.11
308.15 K	994.477 ± 0.11	994.931 ± 0.11	995.392 ± 0.11	995.891 ± 0.11	996.309 ± 0.11	996.799 ± 0.11	997.293 ± 0.11	997.778 ± 0.11	998.299 ± 0.11	998.923 ± 0.11

CC(C)C[N+](CC(C)C)(CC(C)C)CC(C)C.[Br-] [tetra-iso-butyl ammonium bromide] + O
mass density [kg/m3]
Settings	m1 = 0.01022	m1 = 0.02021	m1 = 0.02983	m1 = 0.03847	m1 = 0.04829	m1 = 0.05621	m1 = 0.06888	m1 = 0.07666	m1 = 0.08623	m1 = 0.1002
298.15 K	997.574 ± 0.11	998.092 ± 0.11	998.59 ± 0.11	999.027 ± 0.11	999.524 ± 0.11	999.922 ± 0.11	1000.56 ± 0.11	1000.96 ± 0.11	1001.43 ± 0.11	1002.15 ± 0.11
303.15 K	996.171 ± 0.11	996.676 ± 0.11	997.167 ± 0.11	997.6 ± 0.11	998.101 ± 0.11	998.499 ± 0.11	999.123 ± 0.11	999.518 ± 0.11	999.988 ± 0.11	1000.7 ± 0.11
308.15 K	994.553 ± 0.11	995.043 ± 0.11	995.531 ± 0.11	995.96 ± 0.11	996.462 ± 0.11	996.855 ± 0.11	997.478 ± 0.11	997.85 ± 0.11	998.324 ± 0.11	999.035 ± 0.11
